Measured values taken from patent US20040142899A1, “Compositions and methods for enhanced biostability and altered biodistribution of oligonucleotides in mammals” (ISIS Pharmaceuticals, Inc., priority 1990, published 2004).

Experiments:
[1] = Nuclease stability in HeLa cytoplasmic/nuclear extracts; assay type: in vitro ADME; conditions: cell extract diluted 1.4 times; oligonucleotide 20 μM
Description: The nuclease stability of Oligomer 51 and the conjugate were tested against Oligomer 50 in HeLa cytoplasmic/nuclear extracts. The cell extract was diluted 1.4 times. The final concentration of oligonucleotide was 20 μM. The half lives of the oligonucleotides were as follows: Oligomer 50, 1.0 hrs.; Oligomer 51, 3.5 hrs.; and Conjugate 1, 3.6 hrs.

complementary DNA = assay: Melting analysis (Tm) of 5-LO antisense sequence oligomers against complementary DNA; assay type: binding; conditions: 4 μM each strand, 100 mM NaCl, 10 mM Phosphate, 0.1 mM EDTA, pH 7.0
Description: (§1) The relative ability of oligonucleotides to bind to their complementary strand is compared by determining the melting temperature of the hybridization complex of the oligonucleotide and its complementary strand. The melting temperature (Tm), a characteristic physical property of double helices, denotes the temperature in degrees centigrade at which 50% helical versus coil (un-hybridized) forms are present. Tm is measured by using the UV spectrum to determine the formation and breakdown (melting) of hybridization. Base stacking, which occurs during hybridization, is accompanied by a reduction in UV absorption (hypochromicity). Consequently, […]. The higher the Tm, the greater the strength of the binding of the strands. Non-Watson-Crick base pairing has a strong destabilizing effect on the Tm. Consequently, absolute fidelity of base pairing is necessary to have optimal binding of an antisense oligonucleotide to its targeted RNA.
(§2) The test oligonucleotides (either the phosphodiester, phosphorothioate, cholic acid conjugated phosphodiester, cholic acid conjugated phosphorothioate or 5′-aminolink intermediate phosphodiester or phosphorothioate oligonucleotides of the invention or otherwise) and either the complementary DNA or RNA oligonucleotides were incubated at a standard concentration of 4 μM for each oligonucleotide in buffer (100 mM NaCl, 10 mM Na-phosphate, pH 7.0, 0.1 mM EDTA). Samples were heated to 90 degrees C. and the initial absorbance taken using a Guilford Response II spectro-photometer (Corning, Inc., Corning, N.Y.). Samples were then slowly cooled to 15° C. and then the change in absorbance at 260 nm was monitored during the heat denaturation procedure. The temperature was elevated 1 degree/absorbance reading and the denaturation profile analyzed by taking the 1st derivative of the melting curve. Data was also analyzed using a two-state linear regression analysis to determine the Tm's. The results of these tests are shown in Table 3 as are the HPLC retention times of certain of the test compounds.

complementary RNA = assay: Melting analysis (Tm) of 5-LO antisense sequence oligomers against complementary RNA; assay type: binding; conditions: 4 μM each strand, 100 mM NaCl, 10 mM Phosphate, 0.1 mM EDTA, pH 7.0
Description: as §1, §2

MDR1 mRNA = MDR1 mRNA expression by Northern blotting in MDR 3T3 cells; assay type: cell-based, human; conditions: for MDR1 mRNA Level (arbitrary units) / % Control (MDR1 mRNA): oligonucleotide 1 μm, 24 hours, with Lipofectin; for MDR1 mRNA Level (arbitrary units): serum free medium; for % Control (MDR1 mRNA): control = untreated cells
Description: NIH 3T3 cells transfected with a plasmid containing the human MDR1 gene (pSK1 MDR) have been previously described (Kane et al., Gene, 1989, 84, 439). These cells have proven to be useful models for the study of multi-drug resistance phenomena. Cells were grown in DMEM media containing 10% fetal bovine serum (FBS) and 60 ng/ml colchicine in an atmosphere of 95% air, 5% CO2.
Cells were grown in […] flasks.
To measure MDR1 mRNA expression by Northern blotting, total cellular RNA was isolated by lysis in 4M guanidium isothiocyanate followed by a cesium chloride gradient, and the RNA was resolved on 1.2% agarose gels containing 1.2% formaldehyde and transferred to nitrocellulose membranes (Dean et al., J. Biol. Chem., 1994, 269, 16416). The blots were hybridized with a ^32P radiolabeled human MDR1 cDNA probe. The MDR1 cDNA probe was isolated by performing a polymerase chain reaction on the pSK1 MDR plasmid, as described previously (Alahari et al., Nucl. Acids Res., 1993, 21, 4079). The following oligonucleotide primers were used for PCR: […]
The resulting fragment was checked on an agarose gel and was radiolabeled with ^32P-dCTP using a commercially available random primer labeling kit (Amersham, Arlington Heights, Ill.) according to the manufacturer's instructions. The filters were hybridized overnight in hybridization buffer (25 mM KPO4, pH 7.4; 5×SSC; 5×Denhardt's solution, 100 ug/ml Salmon sperm DNA and 50% formamide) (Alahari et al., Nucl. Acids Res., 1993, 21, 4079). This was followed by two washes with 1×SSC, 0.1% SDS and two washes with 0.25×SSC, 0.1% SDS. Hybridizing bands were visualized by exposure to X-OMAT AR film and quantitated using a PhosphorImager™ (Molecular Dynamics, Sunnyvale, Calif.). To confirm equal loading of RNA, the blots were stripped and reprobed with a ^32P-labeled beta-actin probe (Clontech, Palo Alto, Calif).
In initial experiments, the MDR 3T3 cells were exposed to 1.0 μm concentrations of several different antisense oligonucleotides, or control oligonucleotides, in the presence of 20 ug/ml LIPOFECTIN® for 24 hours. […] NIH 3T3 cells transfected with pSK1 MDR plasmid were grown to 90% confluence and treated with oligonucleotide (1 μm) for 24 hours in the presence of Lipofectin® in serum free medium. Total RNA was isolated and fractionated on agarose formaldehyde gels and blotted onto nitrocellulose membranes. These membranes were probed with a ^32P radiolabeled 1.0 kb MDR1 cDNA, and then stripped and reprobed with a ^32P radiolabeled beta-actin cDNA probe to confirm equal loading of RNA, allowing the levels of MDR1 transcripts to be normalized with regard to the beta-actin bands. Transcript levels were quantitated using a PHOSPHORIMAGER™ (Molecular Dynamics, Sunnyvale, Calif.); the values are expressed in arbitrary units (the beta-actin transcripts were essentially constant).

mouse ICAM-1 mRNA = assay: ICAM-1 mRNA levels in LPS-treated mice (Northern analysis); assay type: in vivo; conditions: liver; 30 mg/kg i.v. 24 and 2 hours prior to LPS
Description: Mice were treated with oligonucleotides and examined as follows. […] Then, to induce ICAM-1 expression, bacterial lipopolysaccharide (LPS) was injected into the mice. After 2 hours, the mice were sacrificed, and particular organs, or specific portion thereof, were removed for further study. RNA was prepared from isolated, homogenized tissues essentially according to the guanidinium/CsCl purification method of Chirgwin et al. (Biochemistry, […], 18, 5294), electrophoresed and transferred to nylon membranes for hybridization studies (Northern analysis) according to methods well known in the art. In order to detect mouse ICAM-1 mRNA, a radiolabelled probe was prepared by random oligonucleotide-primed synthesis using a mouse ICAM-1 clone as a template. The blots were stripped and reprobed with a ^32P-labeled glyceraldehyde 3-phosphate dehydrogenase (G3PDH) probe (Clontech Laboratories, Inc., Palo Alto, Calif.) in order to confirm equal loading of RNA and to allow the levels of ICAM-1 transcripts to be normalized with regard to the G3PDH signals. Hybridizing bands were visualized by exposure to X-OMAT AR film and quantitated using a PHOSPHORIMAGER™ essentially according to the manufacturer's instructions (Molecular Dynamics, Sunnyvale, Calif.).

ICAM-1 protein = conditions: LPS-induced livers, HRP-conjugated secondary antibodies
P-glycoprotein = P-glycoprotein expression by Western blotting in MDR 3T3 cells; assay type: cell-based, human; conditions: maximum only after 72 hours exposure
Description: Transfected MDR NIH 3T3 cells were grown and treated with oligonucleotides as described in Example (9)(B). In order to measure P-glycoprotein expression by Western blotting, cells were seeded in 60 mm dishes at 1.2×10^6 per dish and incubated for 24 hours in serum containing medium. The cells were treated with the oligomers for various times in serum free medium as described above. Cells were then extracted in lysis buffer (20 mM Tris, pH 7.5, 2 mM EDTA, 500 mM EGTA, 2 mM PMSF, 1 mM DTT, aprotonin (10 ug/ml), 0.5% Triton-X) and sonicated briefly. The lysate was spun in a microfuge tube for 20 minutes at 4° C. and the resulting supernatant was checked for protein content. Equal amounts of protein (usually 20 ug) were mixed with SDS sample buffer and boiled. Protein samples were separated by 8% SDS PAGE and the resolved proteins were electrophoretically transferred onto polyvinyllidene fluoride membranes (Millipore, Bedford, Mass.). The membranes were blocked (with 3% BSA, 2% non fat dry milk in PBS) and then treated with 2 ug/ml C219 anti-P-glycoprotein antibody (Signet, Dedham, Mass.). After washing three times with 0.1% Tween 20, the membranes were incubated with rabbit anti-mouse antibody (Cappel, Durham, N.C.). Immunoreactive proteins were visualized either by ECL (Enhanced Chemiluminescence, Amersham, Arlington Heights, Ill.) or with ^125I secondary antibodies.

5′-GCC-TTT-CGC-GAC-CCA-ACA-CU* [Oligomer 51]
half life [1]: 3.5 h

5′-TCC-AGG-TGT-CCG-CAT-C-3′ (antisense TCCAGGTGTCCGCATC; phosphodiester, phosphorothioate or 5'-aminolink variants, which one is not given here, further chemistry not given here) [Oligomer 33, reference compound]
Tm DNA (complementary DNA; listed as 33): 55.4 degrees centigrade
Tm RNA (complementary RNA; listed as 33): 54.9 degrees centigrade

GTT-CAC-TGG-CGC-TTT-GTT-CC (GTTCACTGGCGCTTTGTTCC; all phosphorothioate, sugars by position and methylation of C not given here) [ISIS 5998]
effect on MDR1 mRNA expression (MDR1 mRNA; parent phosphorothioate, Example 9(B)): unpromising effect on MDR1 mRNA expression

5′-GCG-TTG-CTC-TTC-TTC-TTG-CG [ISIS 13293, reference compound]
reduction of hepatic ICAM-1 mRNA relative to LPS without oligonucleotide (mouse ICAM-1 mRNA): no apparent effect
ICAM-1 staining of liver sections (ICAM-1 protein): appear quite dark

GAG-CCG-CTA-CTC-GAA-TGA-GC (GAGCCGCTACTCGAATGAGC; all phosphorothioate, sugars by position and methylation of C not given here) [ISIS 5990]
MDR1 mRNA Level (arbitrary units) (MDR1 mRNA): 443,478 arbitrary units
% Control (MDR1 mRNA) (MDR1 mRNA): 94%

5′-TCC-AGG-TGT-CCG-CAT-C-3′ (antisense TCCAGGTGTCCGCATC; phosphodiester, phosphorothioate or 5'-aminolink variants, which one is not given here, further chemistry not given here) [Oligomer 32, parent 5-LO antisense compound, normal phosphodiester linkages, reference compound]
Tm DNA (complementary DNA; listed as 32): 62.6 degrees centigrade
Tm RNA (complementary RNA; listed as 32): 62.0 degrees centigrade

5′-TCC-AGG-TGT-CCG-CAT-C-3′ (antisense TCCAGGTGTCCGCATC; 5' cholic acid conjugate, chemistry not fully specified) [Oligomer 36, 5′-terminus cholic acid conjugate, phosphodiester]
Tm DNA (complementary DNA): 63.4 degrees centigrade
Tm RNA (complementary RNA): 62.4 degrees centigrade

5′-TCC-AGG-TGT-CCG-CAT-C-3′ (antisense TCCAGGTGTCCGCATC; phosphodiester, phosphorothioate or 5'-aminolink variants, which one is not given here, further chemistry not given here) [Oligomer 37]
Tm DNA (complementary DNA; listed as 37): 56.3 degrees centigrade
Tm RNA (complementary RNA; listed as 37): 55.8 degrees centigrade

CTC-CCG-CAC-ATC-TCC-GCG-CC (CTCCCGCACATCTCCGCGCC; all phosphorothioate, sugars by position and methylation of C not given here) [ISIS 10222, reference compound]
MDR1 mRNA Level (arbitrary units) (MDR1 mRNA): 406,522 arbitrary units
% Control (MDR1 mRNA) (MDR1 mRNA): 86%

CGG-TCC-CCT-TCA-AGA-TCC-AT (CGGTCCCCTTCAAGATCCAT; all phosphorothioate, sugars by position and methylation of C not given here) [ISIS 10440]
reduction of P-glycoprotein (Western assays) (P-glycoprotein): about 50%

5′-GCC-TTT-CGC-GAC-CCA-ACA-CU [Oligomer 50, reference compound]
half life [1]: 1.0 h
